Reference: patent US9758526B2, “Quinoline-substituted compound” (TAIHO PHARMACEUTICAL CO., LTD., priority 2013, dated 2017)

How the values were obtained:
EGFR (L858R) = biological target: T1, EGFR (L858R) (Homo sapiens, UniProt P00533, L858R); test: EGFR (L858R) kinase inhibitory activity; type: biochemical; conditions: ATP 4 μM
T1 construct: purchased Carna Biosciences, Inc
Protocol: (§1) Among the materials of the inhibitory activity measurement, the substrate peptide and the kinase protein were obtained as follows. A peptide with biotinylated N-terminus (biotin-EEPLYWSFPAKKK) was synthesized with reference to FL-Peptide 22, a reagent for LabChip® series of PerkinElmer, Inc. For the kinase protein, a purified recombinant human EGFR (T790M/L858R) protein of Carna Biosciences, Inc. was purchased.
(§2) The inhibitory activity measurement was performed as follows. The compounds of the present invention were individually dissolved in dimethyl sulfoxide (DMSO), and serial dilutions of these compounds were prepared using DMSO. Subsequently, a solution containing the substrate peptide (final concentration: 250 nM), magnesium chloride (final concentration: 10 mM), manganese chloride (final concentration: 10 mM), and ATP (final concentration: 1 μM) in a buffer solution for kinase reaction (Carna Biosciences, Inc.) was mixed with the dilutions of the compounds (final concentration of DMSO upon kinase reaction: 2.5%) or DMSO (final concentration: 2.5%). EGFR (T790M/L858R) protein was further added thereto, and the mixtures were incubated at 25° C. for 120 minutes to carry out a kinase reaction. EDTA was added thereto to a final concentration of 24 mM to thereby terminate the reaction. A phosphorylated thyrosine detection solution containing europium (Eu)-labeled anti-phosphorylated tyrosine antibody PT66 (PerkinElmer, Inc.) and SureLight APC-SA (PerkinElmer, Inc.) was added to the reaction mixtures, and the mixtures were allowed to stand at room temperature for 2 hours or more. For the background, a sample to which EDTA was added before addition of EGFR (T790M/L858R) protein was incubated at 25° C. for 120 minutes, using DMSO instead of the DMSO solution of the compound. The detection solution was also added to this sample, and the mixture was allowed to stand for 2 hours or more. Finally, for all of the test samples, the amount of fluorescence at the time of irradiation of excitation light having a wavelength of 337 nm was measured at dual wavelengths of 620 nm and 665 nm by PHERAstar FS (BMG LABTECH), and a ratio of the fluorescence amounts at the two wavelengths was obtained as data.
(§3) Based on the above rates, phosphorylation inhibition rates (%) were calculated for the samples to which various concentrations of the compound solutions were added. Finally, the obtained reaction inhibition rates (%) at the respective concentrations were plotted for each compound, and the IC50 value (nM), which is a compound concentration at which phosphorylation by EGFR (T790M/L858R) is inhibited by 50%, was determined using XLfit curve-fitting software (IDBS).
The inhibitory activities of the compounds of the present invention against EGFR (L858R) kinase activity were measured.
The materials, the measurement method, and the data analysis method were substantially the same as those shown in the above description regarding “Measurement of EGFR (T790M/L858R) Kinase Inhibitory Activity,” except that a purified recombinant human EGFR (L858R) protein purchased from Carna Biosciences, Inc. was used as the kinase protein, and the measurement was performed with ATP at a final concentration of 4 μM. Finally, the IC50 value (nM) of each compound with respect to EGFR (L858R) was determined by data analysis.

EGFR (T790M/L858R) = biological target: T2, EGFR (T790M/L858R) (Homo sapiens, UniProt P00533, L858R/T790M); test: EGFR (T790M/L858R) kinase inhibitory activity; type: biochemical; conditions: ATP 1 μM, 25° C. for 120 minutes
T2 construct: purchased Carna Biosciences, Inc
T2 sequence (P00533 25-1210 T790M/L858R): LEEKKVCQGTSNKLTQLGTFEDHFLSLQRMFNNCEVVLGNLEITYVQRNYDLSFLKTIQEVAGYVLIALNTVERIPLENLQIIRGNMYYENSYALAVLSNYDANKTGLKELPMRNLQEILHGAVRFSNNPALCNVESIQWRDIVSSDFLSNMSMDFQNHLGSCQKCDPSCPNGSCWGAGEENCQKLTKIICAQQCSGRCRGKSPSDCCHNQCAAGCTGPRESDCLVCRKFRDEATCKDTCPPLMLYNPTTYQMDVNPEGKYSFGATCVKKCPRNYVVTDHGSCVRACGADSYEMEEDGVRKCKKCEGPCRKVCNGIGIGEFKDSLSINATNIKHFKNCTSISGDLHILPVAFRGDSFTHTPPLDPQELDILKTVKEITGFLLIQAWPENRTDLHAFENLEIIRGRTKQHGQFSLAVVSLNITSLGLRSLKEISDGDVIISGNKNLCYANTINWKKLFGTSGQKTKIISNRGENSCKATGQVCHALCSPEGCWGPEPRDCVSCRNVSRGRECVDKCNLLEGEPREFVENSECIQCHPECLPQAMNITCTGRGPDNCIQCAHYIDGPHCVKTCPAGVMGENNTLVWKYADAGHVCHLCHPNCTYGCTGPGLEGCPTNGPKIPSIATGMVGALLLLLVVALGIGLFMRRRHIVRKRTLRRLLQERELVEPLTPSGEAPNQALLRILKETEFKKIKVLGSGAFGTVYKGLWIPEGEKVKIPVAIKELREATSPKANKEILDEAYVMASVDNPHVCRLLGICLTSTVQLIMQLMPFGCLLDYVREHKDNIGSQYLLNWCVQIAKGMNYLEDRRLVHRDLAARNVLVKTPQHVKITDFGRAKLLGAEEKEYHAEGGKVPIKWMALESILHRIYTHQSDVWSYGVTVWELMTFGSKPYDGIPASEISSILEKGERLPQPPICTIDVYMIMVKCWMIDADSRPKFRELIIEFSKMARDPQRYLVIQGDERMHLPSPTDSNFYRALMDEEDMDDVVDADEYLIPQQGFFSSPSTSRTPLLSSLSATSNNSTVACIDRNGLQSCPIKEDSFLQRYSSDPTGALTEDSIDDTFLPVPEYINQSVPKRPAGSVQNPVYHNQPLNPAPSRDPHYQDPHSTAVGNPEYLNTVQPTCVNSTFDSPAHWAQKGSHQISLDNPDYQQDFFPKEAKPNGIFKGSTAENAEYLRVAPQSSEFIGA
Protocol: The inhibitory activities of the compounds of the present invention against EGFR (T790M/L858R) kinase activity were measured.
as §1, §2, §3

[1] = system: HCC827 expressing EGFR (d746-750); test: Growth inhibition, HCC827 expressing EGFR (d746-750); type: cell-based; conditions: Homo sapiens, HCC827, 72 h; cultured three days, CellTiter-Glo
Protocol: (§4) (1) A human […] lung cancer cell line NCI-H1975 expressing EGFR (T790M/L858R), (2) a human non-small cell lung cancer cell line HCC827 expressing EGFR (d746-750), and (3) a human epithelioid cancer cell line A431 expressing EGFR (WT) were each suspended in complete growth medium recommended by ATCC. The cell suspensions were seeded in each well of a 384-well flat microplate or a 96-well flat plate, and cultured in an incubator containing 5% carbon dioxide gas at 37° C. for one day. Each compound of the present invention was dissolved in DMSO, and serial dilutions of the test compound were prepared using DMSO (to a concentration 500 times the final concentration). The DMSO solution of the test compound or DMSO was diluted with complete growth medium, and the resulting solution was added to each well of the cell culture plate so that the final concentration of DMSO was 0.2%. Then, the cells were cultured in an incubator containing 5% carbon dioxide gas at 37° C. for three days. The number of cells was measured before the addition of the DMSO solution of the test compound, as well as after addition and culture by using a CellTiter-Glo Assay® (produced by Promega) according to a protocol recommended by Promega.
(§5) For each cell, the cell growth inhibition rates of the wells to which the test compounds at various concentrations were added were calculated by the following formula. Then, the obtained inhibition rates (%) at the respective concentrations were plotted for each test compound, and the GI50 value (nM), which is a test compound concentration at which the cell growth can be inhibited by 50%, was determined using XLfit curve-fitting software (IDBS). • Cell Growth Inhibition Rate (%)=(C−T)/(C−CO)×100 • T: Luminescence intensity of well cultured for three days after addition of the test compound solution • C: Luminescence intensity of well cultured for three days after addition of DMSO • C0: Luminescence intensity of well before addition of the test compound solution

EGFR (d746-750) = biological target: T3, EGFR (d746-750) (Homo sapiens, UniProt P00533, DEL746-750); test: EGFR (d746-750) kinase inhibitory activity; type: biochemical; conditions: ATP 5 μM, kinase reaction 90 minutes
T3 construct: purchased Carna Biosciences, Inc
T3 sequence (P00533 with tags, fused parts or gaps DEL746-750 limits assumed): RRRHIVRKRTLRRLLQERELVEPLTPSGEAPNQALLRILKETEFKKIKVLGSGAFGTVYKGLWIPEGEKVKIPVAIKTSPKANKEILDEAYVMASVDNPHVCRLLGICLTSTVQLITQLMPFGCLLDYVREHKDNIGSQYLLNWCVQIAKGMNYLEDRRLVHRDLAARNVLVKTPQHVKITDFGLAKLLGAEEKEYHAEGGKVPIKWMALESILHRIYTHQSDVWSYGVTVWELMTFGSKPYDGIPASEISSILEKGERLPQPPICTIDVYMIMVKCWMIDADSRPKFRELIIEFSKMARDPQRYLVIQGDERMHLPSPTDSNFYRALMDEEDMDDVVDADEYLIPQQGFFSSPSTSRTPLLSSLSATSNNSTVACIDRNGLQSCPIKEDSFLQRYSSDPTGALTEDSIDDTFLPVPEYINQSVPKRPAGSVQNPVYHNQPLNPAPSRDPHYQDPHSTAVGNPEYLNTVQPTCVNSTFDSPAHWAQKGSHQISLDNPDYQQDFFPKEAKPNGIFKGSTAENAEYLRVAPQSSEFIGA
Protocol: as §1, §2, §3
The inhibitory activities of the compounds of the present invention against EGFR (d746-750) kinase activity were measured.
The materials, the measurement method, and the data analysis method were substantially the same as those shown in the above description regarding “Measurement of EGFR (T790M/L858R) Kinase Inhibitory Activity,” except that a purified recombinant human EGFR (d746-750) protein purchased from Carna Biosciences, Inc. was used as the kinase protein, the measurement was performed with ATP at a final concentration of 5 μM, and the incubation for the kinase reaction was performed for 90 minutes. Finally, the IC50 value (nM) of each compound with respect to EGFR (d746-750) was determined by data analysis.

EGFR (d746-750/T790M) = biological target: T4, EGFR (d746-750/T790M) (Homo sapiens, UniProt P00533, DEL746-750/T790M); test: EGFR (d746-750/T790M) kinase inhibitory activity; type: biochemical; conditions: ATP 1.5 μM
T4 construct: purchased Carna Biosciences, Inc
T4 sequence (P00533 with tags, fused parts or gaps DEL746-750/T790M limits assumed): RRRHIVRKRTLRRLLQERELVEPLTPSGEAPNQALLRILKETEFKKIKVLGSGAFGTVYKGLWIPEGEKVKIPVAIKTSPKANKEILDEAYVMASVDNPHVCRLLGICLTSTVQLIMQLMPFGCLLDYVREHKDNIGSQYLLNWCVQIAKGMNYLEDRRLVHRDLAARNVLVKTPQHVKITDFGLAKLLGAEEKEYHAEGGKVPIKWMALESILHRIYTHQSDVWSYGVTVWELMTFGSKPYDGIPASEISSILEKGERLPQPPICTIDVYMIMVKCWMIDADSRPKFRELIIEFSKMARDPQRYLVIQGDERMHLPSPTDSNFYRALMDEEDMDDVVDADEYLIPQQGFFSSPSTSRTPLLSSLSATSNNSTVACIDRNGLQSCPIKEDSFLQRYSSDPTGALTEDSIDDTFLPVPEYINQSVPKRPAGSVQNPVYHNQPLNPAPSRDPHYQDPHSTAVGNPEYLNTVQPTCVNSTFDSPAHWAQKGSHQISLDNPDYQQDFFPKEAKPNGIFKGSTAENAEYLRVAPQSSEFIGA
Protocol: as §1, §2, §3
The inhibitory activities of the compounds of the present invention against EGFR (d746-750/T790M) kinase activity were measured.
The materials, the measurement method, and the data analysis method were substantially the same as those shown in the above description regarding “Measurement of EGFR (T790M/L858R) Kinase Inhibitory Activity,” except that a purified recombinant human EGFR (d746-750/T790M) protein purchased from Carna Biosciences, Inc. was used as the kinase protein, and the measurement was performed with an ATP final concentration of 1.5 μM. Finally, the IC50 value (nM) of each compound with respect to EGFR (d746-750/T790M) was determined by data analysis.

[2] = system: NCI-H1975 expressing EGFR (T790M/L858R); test: Growth inhibition, NCI-H1975 expressing EGFR (T790M/L858R); type: cell-based; conditions: Homo sapiens, NCI-H1975, 72 h; cultured three days, CellTiter-Glo
Protocol: as §4, §5

[3] = system: A431 expressing EGFR (WT); test: Growth inhibition, A431 expressing EGFR (WT); type: cell-based; conditions: Homo sapiens, A-431, 72 h; cultured three days, CellTiter-Glo
Protocol: as §4, §5

EGFR (WT) = biological target: T5, EGFR (WT) (Homo sapiens, UniProt P00533); test: EGFR (WT) kinase inhibitory activity; type: biochemical; conditions: substrate peptide 500 nM
T5 construct: expressing a cytoplasmic domain of human EGFR (WT) with its N-terminus fused to a FLAG tag; FLAG (N); made in house; host or cells: insect Sf9 cells, baculovirus expression system
T5 sequence (P00533 669-1210 limits assumed): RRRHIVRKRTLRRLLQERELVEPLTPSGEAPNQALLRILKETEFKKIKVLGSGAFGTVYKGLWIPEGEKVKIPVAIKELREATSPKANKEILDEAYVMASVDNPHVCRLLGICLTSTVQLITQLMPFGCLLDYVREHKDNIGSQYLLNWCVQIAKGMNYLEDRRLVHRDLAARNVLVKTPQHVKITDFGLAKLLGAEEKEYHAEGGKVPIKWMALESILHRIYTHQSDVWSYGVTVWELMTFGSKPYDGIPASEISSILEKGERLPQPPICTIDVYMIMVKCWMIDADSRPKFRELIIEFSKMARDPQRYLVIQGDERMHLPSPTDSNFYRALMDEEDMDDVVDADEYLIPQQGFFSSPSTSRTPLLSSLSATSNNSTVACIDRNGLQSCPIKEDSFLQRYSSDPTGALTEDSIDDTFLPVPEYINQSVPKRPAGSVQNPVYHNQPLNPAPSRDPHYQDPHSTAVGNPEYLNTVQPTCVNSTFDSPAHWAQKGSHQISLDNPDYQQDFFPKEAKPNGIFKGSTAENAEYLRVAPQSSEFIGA
Protocol: as §1, §2, §3
The inhibitory activities of the compounds of the present invention against EGFR (WT) kinase activity were measured.
The materials, the measurement method, and the data analysis method were substantially the same as those shown in the above description regarding “Measurement of EGFR (T790M/L858R) Kinase Inhibitory Activity,” except that a kinase protein prepared by expressing a cytoplasmic domain of human EGFR (WT) with its N-terminus fused to a FLAG tag in insect Sf9 cells using a baculovirus expression system and then purifying it with anti-FLAG antibody agarose (Sigma-Aldrich) was used as the kinase protein, the final concentration of the substrate peptide was 500 nM, and the final concentration of ATP was […]. Finally, the IC50 value (nM) of each compound with respect to EGFR (WT) was determined by data analysis.

T1 sequence (P00533 25-1210 L858R): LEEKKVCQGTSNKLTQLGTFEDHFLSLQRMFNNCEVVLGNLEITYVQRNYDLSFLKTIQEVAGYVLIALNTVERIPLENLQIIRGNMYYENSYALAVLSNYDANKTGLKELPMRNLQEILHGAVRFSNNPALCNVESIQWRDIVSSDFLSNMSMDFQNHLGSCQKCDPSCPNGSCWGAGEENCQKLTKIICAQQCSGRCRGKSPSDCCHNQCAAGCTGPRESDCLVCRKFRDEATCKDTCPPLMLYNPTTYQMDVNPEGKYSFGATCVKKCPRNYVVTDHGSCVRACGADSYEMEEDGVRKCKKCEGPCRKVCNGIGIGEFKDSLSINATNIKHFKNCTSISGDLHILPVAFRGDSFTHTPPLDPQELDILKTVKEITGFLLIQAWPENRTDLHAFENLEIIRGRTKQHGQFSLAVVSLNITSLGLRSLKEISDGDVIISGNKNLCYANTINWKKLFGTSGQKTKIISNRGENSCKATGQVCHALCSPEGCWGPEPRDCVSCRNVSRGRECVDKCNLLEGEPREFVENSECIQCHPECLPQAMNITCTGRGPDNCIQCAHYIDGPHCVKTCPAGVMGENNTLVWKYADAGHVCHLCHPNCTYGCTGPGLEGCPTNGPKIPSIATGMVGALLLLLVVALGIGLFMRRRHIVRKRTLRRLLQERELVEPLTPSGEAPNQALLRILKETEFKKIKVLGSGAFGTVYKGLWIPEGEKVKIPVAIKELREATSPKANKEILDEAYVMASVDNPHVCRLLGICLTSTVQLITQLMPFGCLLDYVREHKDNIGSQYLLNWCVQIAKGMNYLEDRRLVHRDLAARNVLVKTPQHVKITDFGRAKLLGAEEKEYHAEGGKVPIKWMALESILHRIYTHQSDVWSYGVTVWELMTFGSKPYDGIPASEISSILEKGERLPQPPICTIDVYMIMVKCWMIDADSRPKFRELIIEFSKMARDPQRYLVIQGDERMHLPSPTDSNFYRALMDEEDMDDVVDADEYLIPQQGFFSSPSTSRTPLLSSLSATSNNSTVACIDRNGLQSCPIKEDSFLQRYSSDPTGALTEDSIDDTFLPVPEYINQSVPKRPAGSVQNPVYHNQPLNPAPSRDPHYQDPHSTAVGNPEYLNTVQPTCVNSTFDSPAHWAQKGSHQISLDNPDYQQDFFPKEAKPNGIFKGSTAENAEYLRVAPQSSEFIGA

Row | Compound | IC50 (EGFR (L858R)) [nM] | IC50 (EGFR (T790M/L858R)) [nM] | GI50 [1] [nM] | IC50 (EGFR (d746-750)) [nM] | IC50 (EGFR (d746-750/T790M)) [nM] | GI50 [2] [nM] | GI50 [3] [nM] | IC50 (EGFR (WT)) [nM]
1 | C=C1c2c(-c3cnc4ccccc4c3)c3c(N)ncnc3n2C[C@H]1NC(=O)/C=C/CN(C)CC [Example 11, (S,E)-N-(4-amino-6-methylene-5-(quinolin-3-yl)-7,8-dihydro-6H-pyrimido[5,4-b]pyrrolizin-7-yl)-4-(ethyl(methyl)amino)but-2-enamide] | 1.4 | 0.76 | 9.7 | 0.88 | 0.32 | 260 | 3900 | 12
2 | C=C1c2c(-c3cnc4ccccc4c3)c3c(N)ncnc3n2C[C@H]1NC(=O)C#CC [Example 9, (S)—N-(4-amino-6-methylene-5-(quinolin-3-yl)-7,8-dihydro-6H-pyrimido[5,4-b]pyrrolizin-7-yl)but-2-ynamide] | 5.9 | 2.1 | 7.5 | 2.3 | 0.45 | 770 | 4200 | 52
3 | C=C1c2c(-c3cnc4ccccc4c3)c3c(N)ncnc3n2C[C@H]1NC(=O)/C=C/CN1CCCCC1 [Example 7, (S,E)-N-(4-amino-6-methylene-5-(quinolin-3-yl)-7,8-dihydro-6H-pyrimido[5,4-b]pyrrolizin-7-yl)-4-(piperidin-1-yl)but-2-enamide] | 1.7 | 1 | 5.6 | 1.2 | 0.53 | 150 | 2600 | 12
4 | C=C1c2c(-c3cnc4ccccc4c3)c3c(N)ncnc3n2C[C@H]1NC(=O)C=CC (mixture of isomers) [Example 3, (S)—N-(4-amino-6-methylene-5-(quinolin-3-yl)-7,8-dihydro-6H -pyrimido[5,4-b]pyrrolizin-7-yl)but-2-enamide] | 15 | 6.1 | 16 | 7.6 | 1.8 | 560 | > 10000 | 110
5 | C=CC(=O)N[C@H]1C=C(C)c2c(-c3cnc4ccccc4c3)c3c(N)ncnc3n2C1 [Example 14, (S)—N-(4-amino-6-methyl-5-(quinolin-3-yl)-8,9-dihydropyrimido[5,4-b]indolizin-8-yl)acrylamide] | 0.32 | 0.24 | 2.5 | 0.19 | < 0.5 | 22 | 1900 | 2.9

Further compounds by falling IC50 (EGFR (L858R)), results first:

Row | IC50 (EGFR (L858R)) [nM] | IC50 (EGFR (T790M/L858R)) [nM] | GI50 [1] [nM] | IC50 (EGFR (d746-750)) [nM] | IC50 (EGFR (d746-750/T790M)) [nM] | GI50 [2] [nM] | GI50 [3] [nM] | IC50 (EGFR (WT)) [nM] | Compound
6 | 1.1 | 0.6 | 8.1 | 0.72 | 0.34 | 56 | 2600 | 7.8 | C=CC(=O)N(C)[C@H]1Cn2c(c(-c3cnc4ccccc4c3)c3c(N)ncnc32)C1=C [Example 21, (R)—N-(4-amino-6-methylene-5-(quinolin-3-yl)-7,8-dihydro-6H-pyrimido[5,4-b]pyrrolizin-7-yl)-N-methylacrylamide]
7 | 1.1 | 0.83 | 4.9 | 0.85 | 0.31 | 110 | 3400 | 8.6 | C=CC(=O)N[C@@H]1Cn2c(c(-c3cnc4ccccc4c3)c3c(N)ncnc32)C1C (stereo partly drawn) [Example 24, N-((7S)-4-amino-6-methyl-5-(quinolin-3-yl)-7,8-dihydro-6H-pyrimido[5,4-b]pyrrolizin-7-yl)acrylamide]
8 | 0.63 | 0.4 | 5.5 | 0.45 | < 0.5 | 140 | 2400 | 6 | C=C1c2c(-c3cnc4ccccc4c3)c3c(N)ncnc3n2C[C@H]1NC(=O)/C=C/CN(C)C [Example 4, (S,E)-N-(4-amino-6-methylene-5-(quinolin-3-yl)-7,8-dihydro-6H-pyrimido[5,4-b]pyrrolizin-7-yl)-4-(dimethylamino)but-2-enamide]
9 | 0.63 | 0.44 | 3.3 | 0.29 | 0.3 | 47 | 5100 | 7.3 | C=CC(=O)N(C)[C@@H]1C=C(C)c2c(-c3cnc4ccccc4c3)c3c(N)ncnc3n2C1 [Example 23, (R)—N-(4-amino-6-methyl-5-(quinolin-3-yl)-8,9-dihydropyrimido[5,4-b]indolizin-8-yl)-N-methylacrylamide]
